{"source": "patent US20180280480A1", "about": "“COMPOSITIONS AND PEPTIDES HAVING DUAL GLP-1R AND GLP-2R AGONIST ACTIVITY” (priority 2014, published 2018)", "type_in_all_cases": "in vivo", "key": {"[1]": {"tested_on": "Diet Induced Obese (DIO) Sprague-Dawley Rats", "assay": "Oral glucose tolerance test in DIO Sprague-Dawley rats"}, "C57BL/6J mice": {"tested_on": "C57BL/6J mice", "assay": "Acute food intake in C57BL/6J mice", "details": "for Total food intake (g/animal): Day 0: 0-[…] (lights off), mean ± SEM", "protocol": "The C57BL/6J mice arrived 7 days prior to the initiation of the study. During these days, animals were handled daily to accustom them to the experimental paradigm. At Day −1, the mice were randomised according to body weight to participate in one of following drug treatment groups (n=6-8 in each group): Group 1: vehicle. […] Group 3-5: SEQ ID NO 3; 3.0; 1.0; 0.3 mg/kg. Group 6-8: SEQ ID NO 4; 3.0; 1.0; 0.3 mg/kg. Group 9-11: SEQ ID NO 5; 3.0; 1.0; 0.3 mg/kg. Group 12-14: SEQ ID NO 6; 3.0; 1.0; 0.3 mg/kg. Group 15-17: SEQ ID NO 7; 3.0; 1.0; 0.3 mg/kg. Three days prior to initiation of dosing, all animals were handled daily and accustomed to the experimental conditions by subcutaneous mock injections (i.e. nipping the skin of the back). Baseline food intake was monitored four days prior to the study. Mice were randomized according to body weight on Day −1. Animals were subjected to two separate injections. First acute dose was administered prior to lights out at Day 0 and food intake was monitored 24 hours post dosing. On Day 3, mice were re-randomised into new treatment groups and dosed prior to lights out. Food intake was monitored 24 hours post dosing. Body weight was measured daily from Day −5 and throughout the study. The study was terminated on Day 5. […] Dosing took place prior to lights out in the afternoon (between 13.30 and 14.00). Doses were administered subcutaneously (dose volume 5 ml/kg). Food intake data was collected using the HM-2 system, an online computerized feeding system using digital weighing cells. Food intake and body weight were measured from Day −7 and throughout the study. […]"}, "[2]": {"tested_on": "diabetic db/db (BKS.Cg-m+/+Leprdb/J) male mice", "assay": "Oral glucose tolerance test in diabetic db/db mice", "details": "for Blood glucose during an oral glucose tolerance test. Area under the curve (AUC) −240 to 240 min.: Day 56, mean ± S.E.M.", "protocol": "A total of forty-six (46) diabetic db/db (BKS.Cg-m+/+Leprdb/J) male mice, 5 weeks old at arrival, was obtained from Janvier (France). The mice were acclimatized for two weeks in their new environment with free access to normal chow (Altromin 1324, Brogaarden A/S, Gentofte, Denmark) and domestic quality tap water. They were housed in groups of n=2 in a light-, temperature-, and humidity-controlled room (12-hour light: 12-hour dark cycle, lights On/Off at 04.00/16.00 h; 22±1° C.; 50±10% relative humidity). During the habituation period animals was accustomed to the experimental paradigm.\nBaseline, free fed blood glucose samples were obtained bi-weekly prior to study start (blood was collected from the tail vein) in order to screen for the diabetic state. The 40 animals closest to the mean BG/BW value at day −3 were randomized into 4 groups (n=10/group; the remaining 6 animals was be discarded from the main study): Group 1: Vehicle, BID, SC. Group 2: SEQ ID NO 6, 50 nmol/kg, BID, SC. Group 3: SEQ ID NO 6, 250 nmol/kg, BID, SC. […] During day 0-58 of the experiment, animals received a subcutaneous dosing twice daily at 06.00-08.00 hours and again between 02.00-04.00 hours. Dose volume was 5 ml/kg.\nOn experimental day 56 an oral glucose tolerance test was performed. Animals were mildly fasted as food was removed 4 hours prior to administration of the glucose bolus. Compounds were administered 45 minutes prior to the OGTT. At t=0, mice received an oral glucose load of 2 g/kg glucose (Glucose 200 mg/ml, Fresenius Kabi, Sweden). Glucose was given as gavage via a gastrically placed tube connected to a syringe ensuring accurate dosing. Blood samples were collected from the tail vein and blood-glucose was measured at time points −60, 0, 15, 30, 60, 120 and 240 minutes after the glucose administration. Samples for measuring HbA1c was taken in parallel with blood glucose at t=−60 minutes. Mice were re-fed after the last blood sampling."}}}
{"substance": "R^1-HGDGSFTSELSTYLDALAARDFIAWLIQTKITDR^2 [SEQ ID NO 6]", "values": [{"measurement": "effect on glucose tolerance", "setting": "[1]; DIO rats, Table 15", "value": "improved glucose tolerance"}, {"measurement": "Blood glucose during an oral glucose tolerance test. Area under the curve (AUC) −45 to 240 min.", "setting": "[1]; Day 23, 328 nmol/kg, mean ± S.E.M.", "value": "1731 ± 77.0", "unit": "mmol·min/L"}, {"measurement": "Total food intake (g/animal)", "setting": "C57BL/6J mice; single SC dose 0.3 mg/kg", "value": "0.33 ± 0.17", "unit": "g/animal"}, {"measurement": "Total food intake (g/animal)", "setting": "C57BL/6J mice; single SC dose 1 mg/kg", "value": "0.13 ± 0.08", "unit": "g/animal"}, {"measurement": "Total food intake (g/animal)", "setting": "C57BL/6J mice; single SC dose 3 mg/kg", "value": "0.06 ± 0.03", "unit": "g/animal"}, {"measurement": "ranking as inhibitor of food intake after […]", "setting": "C57BL/6J mice; among SEQ ID NO 3-7, Table 4", "value": "most effective inhibitor of food intake"}, {"measurement": "food intake after […] compared to vehicle", "setting": "C57BL/6J mice; single dose 0.3-3 mg/kg", "value": "significantly reduced food intake"}, {"measurement": "glucose tolerance compared to liraglutide", "setting": "[2]; 250 nmol/kg, P=0.03, Student's t-test", "value": "even further improved glucose tolerance compared to animals treated with liraglutide"}, {"measurement": "Blood glucose during an oral glucose tolerance test. Area under the curve (AUC) −240 to 240 min.", "setting": "[2]; 50 nmol/kg BID SC", "value": "3543 ± 469", "unit": "mmol·min/L"}, {"measurement": "Blood glucose during an oral glucose tolerance test. Area under the curve (AUC) −240 to 240 min.", "setting": "[2]; 250 nmol/kg BID SC", "value": "2472 ± 119", "unit": "mmol·min/L"}]}
